In ChEMBL document CHEMBL3988442, “University of Dundee, Small-Polar-MMV Screening Library” (2021):
Several values for one entry are separate records, joined by “and”; a condition that tells them apart may be missing. Identical values can stand only once.

Key:
[1] = test system: Schistosoma mansoni; test: High throughput screening of compounds against Schistosoma mansoni motility; type: functional; set-up: dose or concentration left out as unconfirmed
[2] = target: Chromo domain-containing protein 1 (Saccharomyces cerevisiae (strain ATCC 204508 / S288c) (Baker's yeast), UniProt P32657); test: ScCHD-1 Enzyme Inhibition Assay; type: functional
[3] = microbe, parasite or virus in culture; details: Mycobacterium tuberculosis, 96 h, read-out: pIC50 (converted)
[4] = microbe, parasite or virus in culture; details: Mycobacterium tuberculosis, 72 h, read-out: pIC50 (converted)
[5] = target: ClpP1P2 (Mycobacterium tuberculosis (strain ATCC 25618 / H37Rv), UniProt P9WPC3+P9WPC5); test: in vitro assay to detect presence of AMC directly proportional to the activity of ClpP1P2. GHDDI collaboration.; type: functional
[6] = test system: Plasmodium falciparum; test: Calibr Malaria Delayed Death Assay SOP; type: functional, organism-based

Chromo domain-containing protein 1, sequence (P32657 whole entry, the tested form may be a part): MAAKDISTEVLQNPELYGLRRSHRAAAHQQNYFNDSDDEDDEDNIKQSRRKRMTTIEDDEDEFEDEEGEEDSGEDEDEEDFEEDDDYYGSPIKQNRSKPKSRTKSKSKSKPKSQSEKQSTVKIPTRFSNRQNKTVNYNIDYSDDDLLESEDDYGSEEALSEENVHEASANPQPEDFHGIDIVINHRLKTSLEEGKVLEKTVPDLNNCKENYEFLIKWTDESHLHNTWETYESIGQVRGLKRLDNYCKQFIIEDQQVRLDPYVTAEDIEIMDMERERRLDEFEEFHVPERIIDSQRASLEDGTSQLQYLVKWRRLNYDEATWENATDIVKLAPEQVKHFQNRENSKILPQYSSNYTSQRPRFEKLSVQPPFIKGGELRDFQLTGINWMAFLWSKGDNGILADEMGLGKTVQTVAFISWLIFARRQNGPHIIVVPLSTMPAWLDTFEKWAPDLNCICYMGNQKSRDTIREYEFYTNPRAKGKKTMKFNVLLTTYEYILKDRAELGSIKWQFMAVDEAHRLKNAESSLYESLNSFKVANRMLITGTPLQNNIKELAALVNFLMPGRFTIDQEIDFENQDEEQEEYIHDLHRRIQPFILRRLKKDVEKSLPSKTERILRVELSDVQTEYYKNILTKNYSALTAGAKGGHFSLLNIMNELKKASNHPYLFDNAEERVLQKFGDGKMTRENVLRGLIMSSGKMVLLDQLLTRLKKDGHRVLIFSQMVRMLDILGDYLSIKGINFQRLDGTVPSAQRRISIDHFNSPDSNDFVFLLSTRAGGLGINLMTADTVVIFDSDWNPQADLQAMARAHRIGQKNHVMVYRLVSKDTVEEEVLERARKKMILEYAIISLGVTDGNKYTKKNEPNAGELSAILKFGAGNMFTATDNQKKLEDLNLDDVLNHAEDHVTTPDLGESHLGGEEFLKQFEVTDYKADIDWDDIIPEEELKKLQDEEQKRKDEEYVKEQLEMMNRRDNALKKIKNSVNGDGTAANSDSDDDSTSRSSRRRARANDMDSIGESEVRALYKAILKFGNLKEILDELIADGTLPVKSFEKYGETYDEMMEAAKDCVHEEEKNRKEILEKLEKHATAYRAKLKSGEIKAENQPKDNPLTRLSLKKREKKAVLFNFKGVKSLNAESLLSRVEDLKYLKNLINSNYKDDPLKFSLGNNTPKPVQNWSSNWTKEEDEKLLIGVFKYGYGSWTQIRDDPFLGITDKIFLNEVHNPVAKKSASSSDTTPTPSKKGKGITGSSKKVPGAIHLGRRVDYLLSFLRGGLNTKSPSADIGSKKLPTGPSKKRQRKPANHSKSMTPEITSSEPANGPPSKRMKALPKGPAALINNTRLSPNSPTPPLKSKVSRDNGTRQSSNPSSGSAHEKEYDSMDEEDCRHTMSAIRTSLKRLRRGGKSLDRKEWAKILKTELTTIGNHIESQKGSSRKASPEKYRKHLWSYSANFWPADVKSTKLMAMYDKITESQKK
ClpP1P2, sequence (P9WPC5 whole entry): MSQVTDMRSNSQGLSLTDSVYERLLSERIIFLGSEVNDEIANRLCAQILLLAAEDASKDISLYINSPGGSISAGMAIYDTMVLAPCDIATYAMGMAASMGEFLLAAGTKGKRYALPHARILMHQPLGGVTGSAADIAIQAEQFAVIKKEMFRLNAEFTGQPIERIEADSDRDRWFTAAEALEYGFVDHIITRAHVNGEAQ
ClpP1P2, sequence (P9WPC3 whole entry): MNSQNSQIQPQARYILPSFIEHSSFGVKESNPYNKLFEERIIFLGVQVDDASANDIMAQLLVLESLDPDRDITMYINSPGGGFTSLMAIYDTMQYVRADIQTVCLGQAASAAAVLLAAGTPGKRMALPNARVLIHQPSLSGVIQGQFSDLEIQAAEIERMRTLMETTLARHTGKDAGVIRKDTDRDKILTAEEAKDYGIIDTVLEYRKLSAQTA

CSc1ccccc1CN1CCCn2nc(CNC(=O)N(C)C)cc2C1
Percent Effect [1]: -17.72%
IC50 [2]: > 29.5 µM

CSCC(CCO)NC(=O)Nc1cc(Br)ccc1C (centres undefined)
Percent Effect [1]: -20.66%
IC50 [2]: > 29.5 µM

CCn1ccnc1-c1nc2cc(S(=O)(=O)N3CCCC3)ccc2n1C
Percent Effect [1]: -59.51%
IC50 [2]: > 29.5 µM

CN(C)C(C)(C)CNC(=O)C(C)(C)c1ccccc1F
Percent Effect [1]: -62.05%
IC50 [2]: > 29.5 µM

Cc1cc(CN(C)C(=O)NC(C)c2nncn2C)no1 (centres undefined)
Percent Effect [1]: 0.6145%
IC50 [2]: > 29.5 µM

O=C(Nc1cccc(CN2CCOC2=O)c1)N1CCSCC1
Percent Effect [1]: -6.059%
IC50 [2]: > 29.5 µM

CCCN(CC(=O)NC)C(=O)c1ccc(-c2ccsc2)nc1C
Percent Effect [1]: -8.65%
IC50 [2]: > 29.5 µM

Nc1ncc2c(n1)CN(C1CCCC1)C2=O
IC50 [2]: > 29.5 µM
IC50 [3]: 20.4 µM
IC50 [4]: 16.8 µM

CC(c1cccnc1)N(C)Cc1csc(-c2ccccn2)n1 (centres undefined)
Percent Effect [1]: -97.18%
IC50 [2]: > 29.5 µM

NC(=O)C1CCN(C(=O)c2cccc(CN3CCOCC3)c2)CC1
Percent Effect [1]: 38.13%
IC50 [2]: > 29.5 µM

CCc1cnc(CN(C)C2CCN(CCc3ccccn3)C2)o1 (centres undefined)
Percent Effect [1]: -35.57%
IC50 [2]: > 29.5 µM

Cc1cccc(NC(=O)Cn2ncc(SCC(N)=O)c(Cl)c2=O)c1C
Percent Effect [1]: 40.97%
IC50 [2]: > 29.5 µM

O=C(NCC(O)c1ccccc1Cl)c1cccc(-n2cnnn2)c1 (centres undefined)
Percent Effect [1]: -46.05%
IC50 [2]: > 29.5 µM

COc1ccccc1CN(C)C(=O)c1cc(CN2CCC(O)CC2)on1
Percent Effect [1]: -57.63%
IC50 [2]: > 29.5 µM

Cc1cc(C)n(CC2CN(Cc3cccc(C(N)=O)c3)CCO2)n1 (centres undefined)
IC50 [2]: > 29.5 µM

CC(NC(=O)c1cc(Br)c2c(c1)OCCO2)C(N)=O (centres undefined)
IC50 [2]: > 29.5 µM

O=C(Cn1cc(-c2ccccc2)ncc1=O)Nc1nnc[nH]1
IC50 [2]: > 29.5 µM
IC50 [5]: > 100 µM

Cc1cccc(CN2CC[C@@H]3[C@@H]2CCN3C(=O)c2ccno2)n1
IC50 [2]: > 29.5 µM

Cc1c(C(=O)NCC2CCCO2)nnn1-c1cccc2c1CCN(C)C2 (centres undefined)
IC50 [2]: > 29.5 µM

CCC(NC(=O)C1CCN(S(C)(=O)=O)CC1)c1ccc(OC)c(C)c1 (centres undefined)
IC50 [2]: > 29.5 µM

O=C(NCc1ccco1)[C@H]1C[C@H]2OCC[C@H]2N(C(=O)c2ccco2)C1
IC50 [2]: > 29.5 µM

Cn1ccnc1CN1CCC2(CC1)CN(CC1CC1)C(=O)CO2
IC50 [2]: > 29.5 µM

c1cn(Cc2nnc(C3CCN(c4nccs4)CC3)n2C2CC2)cn1
IC50 [2]: > 29.5 µM

Cc1ncc(S(C)(=O)=O)c(C2CCCNC2)n1 (centres undefined)
IC50 [2]: > 29.5 µM

CCn1ccnc1CN1CCC(CCC(=O)Nc2ccccc2Cl)CC1
IC50 [2]: > 29.5 µM

CN(C)C(CNC(=O)c1cc2c([nH]c1=O)CCCC2=O)c1ccsc1 (centres undefined)
IC50 [2]: > 29.5 µM

Cc1cnn(CC2CCCN2CC(=O)N(C)CCC#N)c1 (centres undefined)
IC50 [2]: > 29.5 µM

COC[C@@]12CC[C@@H](N3CCOCC3)C[C@H]1CCN(c1ncccn1)C2
IC50 [2]: > 29.5 µM

COc1ccc(C2=C(C)C(N3CCc4ccccc4C3)=NS2(=O)=O)cc1
IC50 [2]: 27.1 µM and 24 µM

CN(C(=O)C1CCCCC1)[C@@H]1CCC[C@@H](N2CCOCC2)[C@@H]1O
IC50 [2]: > 29.5 µM

N#Cc1cn(CC(=O)NC2CC2)c2ccc(Br)cc2c1=O
IC50 [2]: > 29.5 µM

CN(C)Cc1nnc(C2CCN(C(=O)CCc3cccs3)CC2)n1C
IC50 [2]: > 29.5 µM

CCc1c(C)nn(CCNC(=O)C2CCCN(C(=O)N(C)C)C2)c1C (centres undefined)
IC50 [2]: > 29.5 µM

O=C(CCc1c[nH]cn1)N1CC[C@@H](c2ccc3ccccc3c2)[C@H](O)C1
IC50 [2]: > 29.5 µM

CCn1nccc1CNC(=O)C1CC1
IC50 [2]: > 29.5 µM

O=C(CS(=O)(=O)CC1CCCCC1)NC1CCCCNC1=O (centres undefined)
IC50 [2]: > 29.5 µM

COC(=O)N1CCc2ccc(NC(=O)c3cn(C)nn3)cc2C1
IC50 [2]: > 29.5 µM

CCn1nc(CC(C)C)cc1C(=O)N1CC[C@@H](O)C1
IC50 [2]: > 29.5 µM

OCC1CCCCN1c1ccc(-c2nc(-c3ccccc3F)no2)cn1 (centres undefined)
pIC50 [6]: 7.272 and 6.795
IC50 [2]: > 29.5 µM

Cn1cnc2c1C(COCC1CC1)CN(C(=O)Cc1ccsc1)C2 (centres undefined)
IC50 [2]: > 29.5 µM

O=C(Cn1cc(-c2ccccc2)ncc1=O)Nc1ccncc1
IC50 [2]: > 29.5 µM
IC50 [5]: > 100 µM
